Assay results published in PMC7076388 (Pharmaceutics, 2020).

Key:
AGS cells = assay: MTT cell viability, AGS cells; type: cell-based; details: 100 µM, 24 h
Protocol: Adenocarcinoma gastric cells (AGS; Sigma-Aldrich, St. Louis, MO, USA), murine-macrophage cell line (RAW 264.7; American Type Culture Collection, LGC Standards S.L.U., Barcelona, Spain), and human foetal lung fibroblasts (MRC-5; ECACC, Porton Down Salisbury, UK) were cultured as a monolayer at 37 °C in a humidified incubator with 5% carbon dioxide. AGS and RAW 264.7 cells were grown in DMEM, supplemented with 1% streptomycin/penicillin and 10% FBS (Gibco®). MRC-5 cells were grown in MEM, supplemented with 1% streptomycin/penicillin and 10% FBS.
Cell viability was evaluated by the MTT reduction assay. Cells were cultured in 96-well plates (15,000 cells/well for AGS, 25,000 cells/well for RAW and 20,000 cells/well for MRC-5) and allowed to attach for 24 h. After incubation with compounds for 24 h, MTT (0.5 mg/mL final concentration) was added to each well and the plate was incubated for 75 min at 37 °C. Formazan crystals were dissolved by the addition of a DMSO: isopropanol mixture (3:1) and then quantified spectrophotometrically at 570 nm using a microplate reader (Multiskan Thermo Fisher Scientific Oy, Vantaa, Finland).

RAW 264.7 cells = test system: RAW 264.7 cells; parameters: method as in PMID 30987203; details: up to 100 µM, 24 h, MTT; cited from earlier work
[1] = test system: LPS-induced •NO production in RAW 264.7 cells; details: cited from earlier work
COX-1 = biological target: T1, COX-1 (Ovis aries, UniProt P05979); parameters: method as in PMID 30987203; details: 25 µM; cited from earlier work
T1 construct: purchased Cayman Chemical
T1 sequence (P05979 25-600): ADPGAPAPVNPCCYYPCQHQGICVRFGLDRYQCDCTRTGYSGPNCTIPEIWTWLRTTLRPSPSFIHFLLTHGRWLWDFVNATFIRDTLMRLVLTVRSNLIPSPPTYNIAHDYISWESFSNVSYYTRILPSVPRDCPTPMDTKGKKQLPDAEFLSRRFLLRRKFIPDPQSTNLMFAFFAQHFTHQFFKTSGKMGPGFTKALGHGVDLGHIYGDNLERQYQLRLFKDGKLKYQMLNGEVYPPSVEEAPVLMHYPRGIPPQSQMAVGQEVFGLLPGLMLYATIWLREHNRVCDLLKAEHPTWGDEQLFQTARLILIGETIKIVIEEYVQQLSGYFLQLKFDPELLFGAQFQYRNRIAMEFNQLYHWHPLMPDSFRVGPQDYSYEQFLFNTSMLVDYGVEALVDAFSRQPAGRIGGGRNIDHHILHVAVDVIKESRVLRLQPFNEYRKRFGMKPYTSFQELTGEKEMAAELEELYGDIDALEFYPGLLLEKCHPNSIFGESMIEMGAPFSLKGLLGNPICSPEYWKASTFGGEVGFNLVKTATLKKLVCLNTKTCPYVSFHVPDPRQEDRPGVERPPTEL

COX-2 = biological target: T2, COX-2 (Homo sapiens, UniProt P35354); parameters: method as in PMID 30987203; details: 25 µM; low selectivity towards COX-2; cited from earlier work
T2 construct: purchased Cayman Chemical
T2 sequence (P35354 18-604): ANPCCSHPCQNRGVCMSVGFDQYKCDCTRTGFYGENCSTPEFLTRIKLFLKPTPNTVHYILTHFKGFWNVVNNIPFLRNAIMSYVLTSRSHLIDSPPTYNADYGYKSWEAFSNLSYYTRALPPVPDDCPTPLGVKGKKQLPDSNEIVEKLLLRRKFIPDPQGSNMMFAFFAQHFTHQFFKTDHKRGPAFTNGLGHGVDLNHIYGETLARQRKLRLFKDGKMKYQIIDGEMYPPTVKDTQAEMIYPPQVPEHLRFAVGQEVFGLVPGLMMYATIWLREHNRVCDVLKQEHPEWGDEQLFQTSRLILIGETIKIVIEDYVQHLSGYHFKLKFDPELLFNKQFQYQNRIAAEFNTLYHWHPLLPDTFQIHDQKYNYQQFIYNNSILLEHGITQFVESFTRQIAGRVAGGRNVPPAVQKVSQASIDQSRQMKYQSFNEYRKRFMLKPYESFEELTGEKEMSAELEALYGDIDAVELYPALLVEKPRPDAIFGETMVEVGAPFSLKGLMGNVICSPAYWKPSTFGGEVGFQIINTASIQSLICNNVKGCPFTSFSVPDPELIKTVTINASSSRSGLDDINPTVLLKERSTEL

[2] = biological target: 20S proteasome isolated from erythrocytes (Homo sapiens, UniProt P28074); assay: 20S proteasome inhibition (chymotrypsin-like activity); type: biochemical; parameters: purified 20S proteasome isolated from erythrocytes (Enzo Life Sciences); purchased Enzo Life Sciences; host or cells: erythrocytes
Protocol: Proteasome activity was measured by adapting a method described by Silva et al.. The substrate used to study chymotrypsin-like enzyme activity was Suc-Leu-Leu-Val-Tyr-AMC and the enzyme used was purified 20S proteasome isolated from erythrocytes (Enzo Life Sciences). […] The plate was incubated at 37 °C in the dark for 2 h. […] Lactacystin was used as positive control.

Structure (SMILES): COc1ccc2cc(C(C)C(=O)NC(Cc3ccc(O)cc3)C(=O)NC(=Cc3ccccc3)C(=O)O)ccc2c1 [Compound 1, Npx-L-Tyr-Z-ΔPhe-OH]
- toxicity towards AGS cells (AGS cells): not toxic
- cytotoxic effect on RAW 264.7 viability (RAW 264.7 cells): did not show any statistically significant cytotoxic effects
- inhibition of LPS-induced production of •NO ([1]; preliminary study): modest ability to inhibit
- IC50 ([1]; previously reported, read-out: IC50 (LPS-dependent •NO production)): 79.3 µM
- COX inhibition level (COX-1) (COX-1): modest levels of COX inhibition
- COX inhibition level (COX-2) (COX-2): modest levels of COX inhibition
- remaining activity at 100 µM ([2]; 100 µM, read-out: 20S proteasome enzyme activity remaining): 11%
- IC50 ([2]; dose-response assay): 30.6 µM
